In patent publication US20140335083A1, “METHODS OF TREATMENT AND PREVENTION OF EYE DISEASES” (GLAXO GROUP LIMITED, priority 2011, published 2014):

Tests used:
[1] = test system: spontaneous CNV in JR5558 mice; experiment: JR5558 spontaneous CNV model, CNV area and number by fluorescein angiography; format: in vivo
Method: JR5558 mice develop CNV (on an atrophic background) spontaneously with CNV lesions first emerging approximately 12 days after birth. JR5558 mice were intraperitoneally treated with various amounts of a rat anti-mouse VEGF receptor (VEGFR)-2 blocking antibody (MAB4431; R&D systems) or a purified rat non-immune isotype match control IgG2α antibody (R&D systems) starting from P14 for a total of 10 doses in 11 days and CNV development was analyzed by fluorescein angiography (FA) 24 hours after the last dose on P25. For Mice treated with CCR3 inhibitor '994 they were dosed intraperitoneally or by eye drop with various concentrations of the drug starting at P14 for a total of 12 days and CNV development was analyzed by FA 24 hours after the last dose on P26. To study the combination effects of anti-VEGFR2 antibody and CCR3 inhibitor '994, mice were treated intraperitoneally with each material alone or in combination starting from P14 for a total of 10 doses in 11 days and CNV development was analyzed by FA 24 hours after the last dose on P25. Experiments exploring the effects of VEGF-A and CCR3 antagonists on vascular permeability from established CNV lesions, JR5558 mice utilised dosing for only two days after the development of CNV lesions and were treated with various amounts of the VEGFR-2 antibody or CCR3 inhibitor '994, or in combinations on P24 and P25. Fluorescein Angiography (FA) was performed on P26.
The pupils of mice were dilated with 2.5% tropicamide (Bausch & Lomb, Rochester, N.Y.) and 0.2 ml of 2% fluorescein sodium (Bausch & Lomb) diluted in water was administered by intraperitoneal injection. A Kowa Genesis-Df fundus camera (Kowa, Tokyo, Japan) was used to obtain fluorescein angiograms at early (90 seconds after fluorescein injection) and late (7 min) phases of dye transit. At the early phase, the vasculature of CNV tissue is clearly defined by the intravascular fluorescein dye. At the late phase, extravascular fluorescein is evident as patches of hyperfluorescence. To quantify the CNV area, Image J program was used to determine the size of each of the hyperfluorescence CNV in each eye with FA images from the early phase. Permeability of each CNV was determined by subtracting the hyper-fluorescent area of early phase (90 second post fluorescein injection) from late phase (7 minutes post fluorescein injection) FA images by using Image J.
JR5558 mice are a strain of mice with an unidentified genetic defect which causes them to develop spontaneous CNV in both retinae with a predictable time course with the first lesions initiating at about post-natal day 12. As such treatment with CCR3 inhibitor '994 was initiated at day 12 and continued for 12 days at which point animals were examined by retinal fluorescence angiography to quantitate the total CNV lesion load and the total number of CNV lesions present in the retinae. Treatment of animals with CCR3 inhibitor '994 led to suppression of both total lesion area (see, FIG. 3, Table 3) and in the total number of CNV lesions present in the retinae (see, FIG. 3, Table 4) when dosed i.p. at either 8 mg/kg QD or 30 mg/kg QD but not when the dose was 2 mg/kg QD.

CCR3 = target: T1, CCR3 (Mus musculus, UniProt P51678); experiment: Fractional CCR3 receptor occupancy calculated from blood concentrations in juvenile mice; format: in vivo
T1 construct: endogenous in cells; host or cells: juvenile mice in vivo; CCR3-bearing cells, mainly eosinophils
T1 sequence (P51678 1-359): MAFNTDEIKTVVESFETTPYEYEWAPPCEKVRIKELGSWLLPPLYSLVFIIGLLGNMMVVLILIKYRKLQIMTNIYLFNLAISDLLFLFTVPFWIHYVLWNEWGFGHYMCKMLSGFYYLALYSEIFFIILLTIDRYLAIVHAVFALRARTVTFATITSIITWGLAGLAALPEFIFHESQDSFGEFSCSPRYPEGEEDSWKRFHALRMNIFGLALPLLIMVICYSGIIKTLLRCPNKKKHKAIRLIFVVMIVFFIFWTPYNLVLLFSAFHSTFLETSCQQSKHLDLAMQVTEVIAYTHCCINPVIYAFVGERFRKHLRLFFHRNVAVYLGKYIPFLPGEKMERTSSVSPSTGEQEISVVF
Method: Following dosing of 8 mg/kg i.p QD CCR3 inhibitor '994 in juvenile mice to mimic exposure effects in JR5558 mice, blood concentration at 24 hrs was calculated for 2 mg/kg i.p, 8 mg.kg i.p and 30 mg/kg i.p. doses by projecting the log linear phase of the PK profile. Blood drug concentrations were then used to determine fractional receptor occupancy using the Langmuir binding isotherm and the pKi for CCR3 inhibitor '994 (estimated in a mouse eosinophil chemotaxis assay). The receptor occupancy values are small over estimates of the true value as the pKi for CCR3 inhibitor '994 was determined in buffer and not blood. The fractional CCR3 receptor occupancy will largely be due to binding to eosinophils as this is the predominant CCR3 bearing cell population. […] This same group also used very small doses of anti-CCR3 antibodies dosed by intravitreal injection to limit laser-induced CNV in mouse models and these very small doses would have very limited impact of fractional receptor occupancy even if they were able to access the systemic circulation. In addition, topical dosing of CCR3 inhibitor '994 as an eye drop formulation was also efficacious in the JR5558 model. […] It is highly likely however that systemic dosing drives exposure of CCR3 antagonist in the eye and ultimately the effect on disease and the exposure in the eye is likely to be a complex function of the systemic exposure and thus an understanding of the systemic pharmacokinetics driving efficacy may be important in profiling systemic therapies.

[2] = 2 mg/kg i.p. QD v Vehicle, 12 days P14-P26, fluorescence angiography
[3] = 8 mg/kg i.p. QD v Vehicle, 12 days P14-P26, fluorescence angiography
[4] = 30 mg/kg i.p. QD v Vehicle, 12 days P14-P26, fluorescence angiography
[5] = eye drop study, 1 mg/ml, 5 ul eye drop to each eye BID v Vehicle, P14-P26
[6] = eye drop study, 8 mg/kg i.p. BID comparator v Vehicle, P14-P26
[7] = eye drop study, 10 mg/ml, 5 ul eye drop to each eye BID v Vehicle, P14-P26

NC(=O)c1ccc(CNC(=O)NC[C@H]2CN(Cc3ccc(Cl)c(Cl)c3)CCO2)cc1 [CCR3 inhibitor '994, 4-[[[[[[(2s)-4-[(3,4-dichlorophenyl)methyl]-2-morpholinyl]methyl]-amino]carbonyl]-amino]methyl]benzamide]
Difference in mean total CNV area per eye [1, 2]: −0.0065
Difference in mean total number of CNV lesions per eye [1, 2]: −1.65
Difference in mean total CNV area per eye [1, 3]: −0.0171
Difference in mean total number of CNV lesions per eye [1, 3]: −5.03
Difference in mean total CNV area per eye [1, 4]: −0.0264
Difference in mean total number of CNV lesions per eye [1, 4]: −5.20
Difference in mean total CNV area per eye ([1]; BID study (Table 5), 8 mg/kg BID v Vehicle, 12 days P14-P26, fluorescence angiography): −0.0214
Difference in mean number of CNV lesions per eye ([1]; BID study (Table 6), 8 mg/kg BID v Vehicle, 12 days P14-P26, fluorescence angiography): −4.63
effect on CNV lesion area and total occurring CNV lesions ([1]; combination study, 30 mg/kg QD systemic, compared to vehicle): significant reduction in both CNV lesion area and total occurring CNV lesions
Difference in mean total CNV area per eye [1, 5]: −5442.63
Difference in mean total number of CNV lesions per eye [1, 5]: −2.25
Difference in mean total CNV area per eye [1, 6]: −9853.26
Difference in mean total number of CNV lesions per eye [1, 6]: 4.95
Difference in mean total CNV area per eye [1, 7]: −8047.55
Difference in mean total number of CNV lesions per eye [1, 7]: −3.96
fractional CCR3 receptor occupancy (CCR3; 2 mg/kg i.p., 24 h trough): 3.1%
fractional CCR3 receptor occupancy (CCR3; 2 mg/kg i.p., at 8 hours): 97.95%
fractional CCR3 receptor occupancy (CCR3; 8 mg/kg i.p., 24 h trough): 11.36%
fractional CCR3 receptor occupancy (CCR3; 8 mg/kg i.p., at 8 hours): 99.48%
fractional CCR3 receptor occupancy (CCR3; 30 mg/kg i.p., 24 h trough): 32.45
fractional CCR3 receptor occupancy (CCR3; 30 mg/kg i.p., at 8 hours): 99.86%
